From PubChem BioAssay AID2060605 (Molecular Pharmacology Branch, DTP, NCI, 2025)
“And” between values parts separate entries of the source, which are not always exact repeats. Equal entries are not always repeated.

System: 947758-054-R-J2-PDC spheroid growth, percent test/control
Test: Anticancer human tumor 947758-054-R-J2-PDC patient-derived colon adenocarcinoma cell line growth inhibition [CLK]
Conditions: spheroids with HUVEC and MSC; for viability, T/C: stronger effect = lower value; active = viability on the fitted dose curve at most 10% of control; inactive = the rest
Summary of the method: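 Patient-derived tumor cells grown as complex spheroids with HUVEC endothelial cells and mesenchymal stem cells, treated with drug combinations. Concentrations descend in half-log steps from near clinical Cmax, or from 10 microM if Cmax unknown.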

[1] = curve of first compound, second compound 0.0316 µM
[2] = curve of first compound, second compound 0.1 µM
[3] = curve of first compound, second compound 0.316 µM
[4] = curve of first compound, second compound 1 µM
[5] = curve of first compound, second compound 3.16 µM
[6] = curve of first compound, second compound 10 µM
[7] = second compound 0.0316 µM, first compound 0.0316 µM
[8] = second compound 0.0316 µM, first compound 0.1 µM
[9] = second compound 0.0316 µM, first compound 0.316 µM
[10] = second compound 0.0316 µM, first compound 1 µM
[11] = second compound 0.0316 µM, first compound 3.16 µM
[12] = second compound 0.0316 µM, first compound 10 µM
[13] = second compound 0.1 µM, first compound 0.0316 µM
[14] = second compound 0.1 µM, first compound 0.1 µM
[15] = second compound 0.1 µM, first compound 0.316 µM
[16] = second compound 0.1 µM, first compound 1 µM
[17] = second compound 0.1 µM, first compound 3.16 µM
[18] = second compound 0.1 µM, first compound 10 µM
[19] = second compound 0.316 µM, first compound 0.0316 µM
[20] = second compound 0.316 µM, first compound 0.1 µM
[21] = second compound 0.316 µM, first compound 0.316 µM
[22] = second compound 0.316 µM, first compound 1 µM
[23] = second compound 0.316 µM, first compound 3.16 µM
[24] = second compound 0.316 µM, first compound 10 µM
[25] = second compound 1 µM, first compound 0.0316 µM
[26] = second compound 1 µM, first compound 0.1 µM
[27] = second compound 1 µM, first compound 0.316 µM
[28] = second compound 1 µM, first compound 1 µM
[29] = second compound 1 µM, first compound 3.16 µM
[30] = second compound 1 µM, first compound 10 µM
[31] = second compound 3.16 µM, first compound 0.0316 µM
[32] = second compound 3.16 µM, first compound 0.1 µM
[33] = second compound 3.16 µM, first compound 0.316 µM
[34] = second compound 3.16 µM, first compound 1 µM
[35] = second compound 3.16 µM, first compound 3.16 µM
[36] = second compound 3.16 µM, first compound 10 µM
[37] = second compound 10 µM, first compound 0.0316 µM
[38] = second compound 10 µM, first compound 0.1 µM
[39] = second compound 10 µM, first compound 0.316 µM
[40] = second compound 10 µM, first compound 1 µM
[41] = second compound 10 µM, first compound 3.16 µM
[42] = second compound 10 µM, first compound 10 µM
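Note: spheroids exposed to compounds for one week before readout.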
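Throughout, for viability, T/C: 100% = DMSO vehicle control wells.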

COC1C=CCC(C)C(C)S(=O)(=O)NC(=O)c2ccc3c(c2)N(CC2CCC21)CC1(CCCc2cc(Cl)ccc21)CO3 (stereo unspecified) + CNC(=O)c1ccc(Nc2nc(OC3CCCC3)c3c(-c4ccc5nc(C)oc5c4)c[nH]c3n2)c(OC)c1
5.3 µM: IC50 [2]
7.66 µM: IC50 [1]
inactive: viability, T/C [7] 75.6% | viability, T/C [8] 83.8% | viability, T/C [9] 90.3% | viability, T/C [10] 116% | viability, T/C [11] 95.3% | viability, T/C [12] 37.3% | viability, T/C [13] 73.4% | viability, T/C [14] 71.2% | viability, T/C [15] 55.5% | viability, T/C [16] 65.1% | viability, T/C [17] 72.1% | viability, T/C [18] 28.5% | viability, T/C [19] 61.8% | viability, T/C [20] 53.6% | viability, T/C [21] 37.2% | viability, T/C [22] 44.1% | viability, T/C [23] 49.2% | viability, T/C [24] 16.7% | viability, T/C [25] 37.5% | viability, T/C [26] 36.1% | viability, T/C [27] 24.4% | viability, T/C [28] 29.5% | viability, T/C [29] 26.4% | viability, T/C [30] 12.4% | viability, T/C [31] 28.3% | viability, T/C [32] 24.4% | viability, T/C [33] 21.8% | viability, T/C [34] 18.2% | viability, T/C [35] 18.1% | viability, T/C [36] 15.3% | viability, T/C [37] 29.4% | viability, T/C [38] 23.3% | viability, T/C [39] 13.2% | viability, T/C [40] 15.4% | viability, T/C [41] 10.6% | viability, T/C [42] 13.5%
< 0.0316 µM: IC50 [3] | IC50 [4] | IC50 [5] | IC50 [6]

COc1ccc([C@@H](O)c2cc(-c3ncnc4cc(N5CCOCC5)ccc34)c(F)cc2Cl)nn1 + CN1CCN(c2cc(C(=O)Nc3cc4cc(-c5cnn(C)c5)ccc4cn3)ccn2)CC1
4.24 µM: IC50 [2]
< 0.0316 µM: IC50 [3] | IC50 [4] | IC50 [5] | IC50 [6]
> 10 µM: IC50 [1]
inactive: viability, T/C [7] 126% | viability, T/C [8] 134% | viability, T/C [9] 157% | viability, T/C [10] 163% | viability, T/C [11] 165% | viability, T/C [12] 64% | viability, T/C [13] 119% | viability, T/C [14] 137% | viability, T/C [15] 111% | viability, T/C [16] 92.1% | viability, T/C [17] 59.8% | viability, T/C [18] 25.2%
active: viability, T/C [19] 1.95% | viability, T/C [20] 5% | viability, T/C [21] 1.88% | viability, T/C [22] 2.42% | viability, T/C [23] 2.05% | viability, T/C [24] 1.12% | viability, T/C [25] 0.11% | viability, T/C [26] 1.62% | viability, T/C [27] 0.17% | viability, T/C [28] 0.08% | viability, T/C [29] 1.67% | viability, T/C [30] 0.46% | viability, T/C [31] 0.13% | viability, T/C [32] 1.34% | viability, T/C [33] 0.63% | viability, T/C [34] 0.14% | viability, T/C [35] 0.18% | viability, T/C [36] 0.3% | viability, T/C [37] 0.26% | viability, T/C [38] 0.42% | viability, T/C [39] 0.26% | viability, T/C [40] 0.21% | viability, T/C [41] 0.3% | viability, T/C [42] 0.88%

CC1(C)CCC(CN2CCN(c3ccc(C(=O)NS(=O)(=O)c4ccc(NCC5CCOCC5)c([N+](=O)[O-])c4)c(Oc4cnc5[nH]ccc5c4)c3)CC2)=C(c2ccc(Cl)cc2)C1
5.23 µM and 5.17 µM: IC50 (curve of compound)
inactive: viability, T/C (compound 0.0316 µM) 97.8% and 118% | viability, T/C (compound 0.1 µM) 77.6% and 97.2% | viability, T/C (compound 0.316 µM) 97.4% and 110% | viability, T/C (compound 1 µM) 94.5% and 86.3% | viability, T/C (compound 3.16 µM) 79.5% and 87.2%
11.8% and 7.38%: viability, T/C (compound 10 µM)
